Peptide text beside a SMILES is read from it. * marks the point of attachment. Decanoyl = CCCCCCCCCC(=O)*; CH2Cl = ClC*
Assays:
Assay type in all cases: cell-based
[1] = molecular target: T1, Furin (Homo sapiens, UniProt P09958); assay: flow cytometry of FLAG surface expression in SupT1 clones stably expressing the wt gp120/gp41 boundary scaffold; details: SupT1 clones expressing wt gp120/41 boundary, FITC anti-FLAG, 0.9% without inhibitor
T1 construct: endogenous in cells; host or cells: SupT1 T-cell clones stably transduced with pBMN-gp160 min-wt
T1 sequence (P09958 108-794): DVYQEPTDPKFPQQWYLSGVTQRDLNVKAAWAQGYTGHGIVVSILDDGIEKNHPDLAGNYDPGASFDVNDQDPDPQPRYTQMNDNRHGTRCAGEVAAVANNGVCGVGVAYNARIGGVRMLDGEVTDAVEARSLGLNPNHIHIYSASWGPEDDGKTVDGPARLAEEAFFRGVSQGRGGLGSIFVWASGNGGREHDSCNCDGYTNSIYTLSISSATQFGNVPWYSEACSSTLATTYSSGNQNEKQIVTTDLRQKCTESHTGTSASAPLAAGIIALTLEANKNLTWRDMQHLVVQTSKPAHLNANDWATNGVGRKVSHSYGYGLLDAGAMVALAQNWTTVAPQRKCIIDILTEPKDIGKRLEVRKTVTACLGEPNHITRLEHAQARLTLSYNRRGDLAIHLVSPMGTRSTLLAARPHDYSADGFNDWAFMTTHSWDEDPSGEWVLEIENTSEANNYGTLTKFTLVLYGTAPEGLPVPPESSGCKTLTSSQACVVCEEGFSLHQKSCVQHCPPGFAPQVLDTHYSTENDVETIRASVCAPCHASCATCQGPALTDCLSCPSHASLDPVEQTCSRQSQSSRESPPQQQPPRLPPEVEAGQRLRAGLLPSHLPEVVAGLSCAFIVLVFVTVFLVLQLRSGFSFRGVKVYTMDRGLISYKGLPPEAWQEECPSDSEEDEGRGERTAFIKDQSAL
From the text: In alternative embodiments, cell-based assays of the invention comprise use of a double-tagged engineered scaffold (of the invention) that allows discrimination between cleaved and non-cleaved events based on the cell surface expression of one or two tags, respectively. In alternative embodiments the scaffold protein travels to the cell surface and retains the FLAG tag only when processing of the gp120/gp41 boundary within the gp160 Env precursor is inhibited, e.g., by a putative drug. […]
Clonal populations should drastically increase robustness as 100% of the cells are expected to express the assay scaffold. […] Selected clones sorted into a 96-well plate, were amplified for a period of one month and analyzed by flow cytometry and fluorescence microscopy. […]
For that purpose, clones expressing the wt gp120/41 boundary were analyzed by flow cytometry following incubation with increasing concentration of the Furin inhibitor DCK. […] The same clones, treated with 50 mM DCK, were further analyzed by fluorescence microscopy prior and following incubation with 50 mM DCK. […]
Flow cytometry and sorting: Flow cytometry is performed on a BD FACSAria™ and/or FACSCanto (SDSU FACS core facility) with 488 nm and 633 nm lasers. Data is collected using FACSDiva 6.1.1™ software (BD Biosciences. San Jose, Calif.) and analyzed by FLOWJO™ (Tree Star, Inc., Ashland, Oreg.).

[2] = molecular target: T1, Furin; assay: fluorescence microscopy (HA-FITC, FLAG-CY3) of SupT1 clones stably expressing the wt gp120/gp41 boundary scaffold; details: 50 mM DCK
Protocol: For that purpose, clones expressing the wt gp120/41 boundary were analyzed by flow cytometry following incubation with increasing concentration of the Furin inhibitor DCK. FLAG surface expression is progressively recovered at 10 mM and 50 mM DCK, increasing form 0.9% to 39% and then 90% (FIG. 7). The same clones, treated with 50 mM DCK, were further analyzed by fluorescence microscopy prior and following incubation with 50 mM DCK. The mutant version was used as control.
FIG. 8 illustrates: Fluorescence microscopy images of SupT1 clones stably expressing the assay (as with FIGS. 5, 6 and 7, above). Clones expressing wild type (wt) or mutant version of the boundary were analyzed with HA-FITC and FLAG-CY3. Visible light, individual channels and merge are shown. I: Inhibitor, BF: Bright Field.

[3] = system: cleavage of wildtype HIV-1 envelope boundary by Furin or similar enzymes; assay: multiplexed tdTomato-barcoded SupT1 flow cytometry assay, wildtype HIV-1 envelope boundary substrate; details: DCK treatment; wildtype HIV-1 envelope boundary population
From the text: (§1) As example, FIG. 15 schematically illustrates a fluorescent flow cytometry analysis of three SupT1 T cell lines, each carrying a different substrate within the context of the assay elements. The distinct cell lines were previously genetically barcoded with different levels of tdTomato fluorescent protein. In that manner, the assay cells, when analyzed for tdTomato in the PE channel (FIG. 15A, panel A) show three populations (negative, dim, and bright tdTomato). […] The HA positive/FLAG positive population reveal Population 2 (dim for tdTomato expressing the mutant HIV envelope boundary; env-mut (R511S)).
(§2) FIG. 16 schematically illustrates a fluorescent flow cytometry analysis in the PE channel for td Tomato expression and FITC channel for FLAG expression. As a reminder, in the assay the second tag (FLAG here) is lost if cleavage occurs while the scaffold protein travels to the cell surface. […] When stained for FLAG, only population 2 (mutant HIV-1 boundary) retains the tag, while wild type HIV-1 boundary and DenV pr-M, as expected, lost it.
(§3) In alternative embodiments, exemplary assays of the invention are used for drug discovery. As a proof of principle, the same experiment with the three bar-coded populations was repeated in the presence of DCK, an inhibitor of Furin and similar protein convertases that are active in the Golgi/TransGolgi network. […]

[4] = system: cleavage of DenV pr-M boundary; assay: multiplexed tdTomato-barcoded SupT1 flow cytometry assay, DenV pr-M boundary substrate; details: DCK treatment; DenV pr-M population
From the text: as §1, §2, §3

CCCCCCCCCC(=O)N[C@@H](CCCN=C(N)N)C(=O)N[C@H](C(=O)N[C@@H](CCCCN)C(=O)N[C@@H](CCCN=C(N)N)C(=O)CCl)C(C)C [DCK] (Decanoyl-RVKR-CH2Cl)
FLAG surface expression ([1]; 10 mM DCK): 39% | FLAG surface expression ([1]; 50 mM DCK): 90% | red fluorescence (FLAG-CY3) of wt clones [2]: red fluorescence is restored | second tag (FLAG) cell surface expression [3]: reconstitutes the second tag (FLAG) cell surface expression | inhibition of cleavage (FLAG reconstitution) [4]: not inhibited by DCK

— patent publication US20190048391A1, “COMPOSITIONS AND METHODS FOR IDENTIFYING ENZYME MODULATORS OR INHIBITORS” (priority 2013, published 2019)
